Measurements: patent US6353019B1, “Macrocyclic lactones, compositions, and methods of use” (United States of America as represented by the Department …, priority 1997, dated 2002)

What was measured:
Assay type in all cases: cell-based, human
Conditions in all cases: averaged, quadruplicate testing, 48 h, SRB
CCRF-CEM = test: NCI 60 cell-line screen, CCRF-CEM (Leukemia)
Protocol: (§1) The NCI screen consists of a panel of 60 different human tumor cell lines against which compounds are tested over a defined range of concentrations to determine the relative degree of growth inhibition or cytotoxicity against each cell line. The design and operation of the screen is such that for each compound tested, both the absolute and relative sensitivities of individual cell lines comprising the screen are sufficiently reproducible that a characteristic profile or “fingerprint” of cellular response is generated. Compounds which are active in the NCI screen show pronounced differential tumor growth-inhibitory and/or cytotoxic effects to the diverse cell lines comprising the 60 cell-line panel. The degree of differential response between the most and least sensitive lines typically may be relatively small (e.g., 2- to 10-fold), or occasionally as great as 3-4 orders of magnitude. […]
(§2) In the screening assay, each agent is tested over a broad concentration range against every cell line in the panel. […] Test compounds are evaluated at five 10-fold dilutions. […] Optical densities are measured on automated plate readers, followed by computerized data acquisition, processing, storage, and availability for display and analysis. […]

K-562 = test: NCI 60 cell-line screen, K-562 (Leukemia)
Protocol: as §1, §2

A549/ATCC = test: NCI 60 cell-line screen, A549/ATCC (Lung)
Protocol: as §1, §2

NCI-H322M = test: NCI 60 cell-line screen, NCI-H322M (Lung)
Protocol: as §1, §2

NCI-H522 = test: NCI 60 cell-line screen, NCI-H522 (Lung)
Protocol: as §1, §2

COLO 205 = test: NCI 60 cell-line screen, COLO 205 (Colon)
Protocol: as §1, §2

HCT-116 = test: NCI 60 cell-line screen, HCT-116 (Colon)
Protocol: as §1, §2

KM12 = test: NCI 60 cell-line screen, KM12 (Colon)
Protocol: as §1, §2

LOX-IMVI = test: NCI 60 cell-line screen, LOX-IMVI (Melanoma)
Protocol: as §1, §2

MALME-3M = test: NCI 60 cell-line screen, MALME-3M (Melanoma)
Protocol: as §1, §2

SK-MEL-2 = test: NCI 60 cell-line screen, SK-MEL-2 (Melanoma)
Protocol: as §1, §2

SK-MEL-28 = test: NCI 60 cell-line screen, SK-MEL-28 (Melanoma)
Protocol: as §1, §2

OVCAR-3 = test: NCI 60 cell-line screen, OVCAR-3 (Ovary)
Protocol: as §1, §2

OVCAR-4 = test: NCI 60 cell-line screen, OVCAR-4 (Ovary)
Protocol: as §1, §2

OVCAR-5 = test: NCI 60 cell-line screen, OVCAR-5 (Ovary)
Protocol: as §1, §2

SK-OV-3 = test: NCI 60 cell-line screen, SK-OV-3 (Ovary)
Protocol: as §1, §2

ACHN = test: NCI 60 cell-line screen, ACHN (Kidney)
Protocol: as §1, §2

CAKI-1 = test: NCI 60 cell-line screen, CAKI-1 (Kidney)
Protocol: as §1, §2

SN-12C = test: NCI 60 cell-line screen, SN-12C (Kidney)
Protocol: as §1, §2

TK-10 = test: NCI 60 cell-line screen, TK-10 (Kidney)
Protocol: as §1, §2

UO-31 = test: NCI 60 cell-line screen, UO-31 (Kidney)
Protocol: as §1, §2

PC-3 = test: NCI 60 cell-line screen, PC-3 (Prostate)
Protocol: as §1, §2

MCF-7-ADR-RES = test: NCI 60 cell-line screen, MCF-7-ADR-RES (Breast)
Protocol: as §1, §2

MDA-MB-231/ATCC = test: NCI 60 cell-line screen, MDA-MB-231/ATCC (Breast)
Protocol: as §1, §2

MDA-N = test: NCI 60 cell-line screen, MDA-N (Breast)
Protocol: as §1, §2

BT-549 = test: NCI 60 cell-line screen, BT-549 (Breast)
Protocol: as §1, §2

## salicylihalamide A
CCRF-CEM
  negative log10 GI50: 7.89
K-562
  negative log10 GI50: 8.41
A549/ATCC
  negative log10 GI50: 8.54
NCI-H322M
  negative log10 GI50: 6.72
NCI-H522
  negative log10 GI50: 7.26
COLO 205
  negative log10 GI50: 8.07
HCT-116
  negative log10 GI50: 8.74
KM12
  negative log10 GI50: 8.30
LOX-IMVI
  negative log10 GI50: 9.11
MALME-3M
  negative log10 GI50: 7.62
SK-MEL-2
  negative log10 GI50: 7.47
SK-MEL-28
  negative log10 GI50: 7.00
OVCAR-3
  negative log10 GI50: 7.03
OVCAR-4
  negative log10 GI50: 5.30
OVCAR-5
  negative log10 GI50: 8.11
SK-OV-3
  negative log10 GI50: 5.54
ACHN
  negative log10 GI50: 8.01
CAKI-1
  negative log10 GI50: 8.96
SN-12C
  negative log10 GI50: 7.77
TK-10
  negative log10 GI50: 5.74
UO-31
  negative log10 GI50: 8.31
PC-3
  negative log10 GI50: 7.51
MCF-7-ADR-RES
  negative log10 GI50: 8.07
MDA-MB-231/ATCC
  negative log10 GI50: 6.92
MDA-N
  negative log10 GI50: 8.00
BT-549
  negative log10 GI50: 9.30
